Data on nine compounds can be found in US7109193B2, “Tricyclic diazepines tocolytic oxytocin receptor antagonists” (Wyeth, priority 2001, dated 2006).

The test deals with T1, human vasopressin V1a receptor subtype (Homo sapiens, UniProt P37288).
T1 construct: host or cells: CHO cells (pZeoSV vector for the Thibonnier line)
T1 sequence (P37288 whole entry): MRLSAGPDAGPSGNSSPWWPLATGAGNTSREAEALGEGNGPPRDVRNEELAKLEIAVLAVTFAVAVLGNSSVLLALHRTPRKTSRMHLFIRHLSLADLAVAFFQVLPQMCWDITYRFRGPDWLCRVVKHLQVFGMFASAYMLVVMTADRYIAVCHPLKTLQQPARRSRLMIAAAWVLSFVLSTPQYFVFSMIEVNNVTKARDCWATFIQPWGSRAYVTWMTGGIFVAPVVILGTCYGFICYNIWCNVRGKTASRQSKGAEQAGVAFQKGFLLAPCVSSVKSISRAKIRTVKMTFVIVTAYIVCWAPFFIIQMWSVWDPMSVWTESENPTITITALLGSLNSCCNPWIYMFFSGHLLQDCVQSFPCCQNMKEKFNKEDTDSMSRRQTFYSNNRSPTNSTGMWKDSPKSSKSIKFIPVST
The experiment in a line: Vasopressin binding in Chinese Hamster Ovary cell membranes expressing human vasopressin V1a subtype receptors. The following applies: 100 nM, CHO cell membranes, [3H]Manning ligand, values without parentheses. An outline of the steps:
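Membranes from CHO cells expressing human V1a receptor were incubated with [3H]Manning ligand (added as 20 μL of 8 nM) in pH 7.4 Tris buffer with MgCl2, BSA and protease inhibitors, 60 min at room temperature. Bound radioactivity was counted after filtration; values are percent inhibition at a stated concentration or IC50.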
Consider `COc1cccc(-c2cc(OC)c(C(=O)N3Cc4ccc(C(=O)N5CCC(N6CCCC6)CC5)n4Cc4ccccc43)cc2Cl)c1` [Example 143, {10-[(6-Chloro-3,3′-dimethoxy[1,1′-biphenyl]-4-yl)carbonyl]-10,11-dihydro-5H-pyrrolo[2,1-c][1,4]benzodiazepin-3-yl}[4-(1-pyrrolidinyl)-1-piperidinyl]methanone], for which the inhibition at 0.1 µM was -3%. On to `COc1ccccc1-c1ccc(C(=O)N2Cc3ccc(C(=O)N4CC[C@@H](N(C)C)C4)n3Cc3ccccc32)cc1OC` [Example 282, {10-[(2,2′-Dimethoxy[1,1′-biphenyl]-4-yl)carbonyl]-10,11-dihydro-5H-pyrrolo[2,1-c][1,4]benzodiazepin-3-yl][(3R)-3-(dimethylamino)pyrrolidinyl]methanone], for which the “V1a % inhibition @ 100 nM” value turned out to be 1%. `CN(C)CCCN(C)C(=O)c1ccc2n1Cc1ccccc1N(C(=O)c1ccc(-c3cccc4ccccc34)cc1Cl)C2` [Example 109, 10-[2-Chloro-4-(1-naphthyl)benzoyl]-N-[3-(dimethylamino)propyl]-N-methyl-10,11-dihydro-5H-pyrrolo[2,1-c][1,4]benzodiazepine-3-carboxamide]: the inhibition at 0.1 µM came out at 9%.

For `CN(C)[C@@H]1CCN(C(=O)c2ccc3n2Cc2ccccc2N(C(=O)c2ccc(-c4cccc5ccccc45)cc2Cl)C3)C1` [Example 277, {10-[2-Chloro-4-(1-naphthyl)benzoyl]-10,11-dihydro-5H-pyrrolo[2,1-c][1,4]benzodiazepin-3-yl}[(3R)-3-(dimethylamino)pyrrolidinyl]methanone], the “V1a % inhibition @ 100 nM” value was found to be 8%. On the same count and under the same terms, the result for `Cc1ccccc1-c1ccc(C(=O)N2Cc3ccc(C(=O)N4CC[C@@H](N(C)C)C4)n3Cc3ccccc32)cc1C` [Example 274, [(3R)-3-(Dimethylamino)pyrrolidinyl]{10-[(2,2′-dimethyl[1,1′-biphenyl]-4-yl)carbonyl]-10,11-dihydro-5H-pyrrolo[2,1-c][1,4]benzodiazepin-3-yl}methanone] reads 90%. The same measure, in the same setting: the result for `COc1ccccc1-c1ccc(C(=O)N2Cc3ccc(C(=O)N4CCC[C@H]4CN4CCCC4)n3Cc3ccccc32)cc1OC` [Example 269, {10-[(2,2′-Dimethoxy[1,1′-biphenyl]-4-yl)carbonyl]-10,11-dihydro-5H-pyrrolo[2,1-c][1,4]benzodiazepin-3-yl}[(2S)-2-(1-pyrrolidinylmethyl)pyrrolidinyl]methanone] reads −1%; that for `O=C(c1ccc(-c2cccc3ccccc23)cc1Cl)N1Cc2ccc(C(=O)N3CCC[C@H]3CN3CCCC3)n2Cc2ccccc21` [Example 261, {10-[2-Chloro-4-(1-naphthyl)benzoyl]-10,11-dihydro-5H-pyrrolo[2,1-c][1,4]benzodiazepin-3-yl}[(2S)-2-(1-pyrrolidinylmethyl)pyrrolidinyl]methanone], 13%; that for `COc1cc(-c2ccccc2C)c(Cl)cc1C(=O)N1Cc2ccc(C(=O)N3CCC[C@H]3CN3CCCC3)n2Cc2ccccc21` [Example 267, {10-[(6-Chloro-3-methoxy-2′-methyl[1,1′-biphenyl]-4-yl)carbonyl]-10,11-dihydro-5H-pyrrolo[2,1-c][1,4]benzodiazepin-3-yl}[(2S)-2-(1-pyrrolidinylmethyl)pyrrolidinyl]methanone], 12%. Consider `Cc1ccccc1-c1ccc(C(=O)N2Cc3ccc(C(=O)NCCCn4ccnc4)n3Cc3ccccc32)cc1` [Example 127, N-[3-(1H-Imidazol-1-yl)propyl]-10-[(2′-methyl[1,1′-biphenyl]-4-yl)carbonyl]-10,11-dihydro-5H-pyrrolo[2,1-c][1,4]benzodiazepine-3-carboxamide], for which the inhibition at 0.1 µM was found to be 16%.

The term inhibition denotes the drop in the measured response relative to a control, in per cent.
